Assay: Thermogravimetric analysis (TGA) of the crystal forms
Format: physicochemical
Method: 4) TGA method Instrument model: Netzsch TG 209F3, temperature range 30-400° C., scan rate 10K/min, purge gas flow rate 25 mL/min, shielding gas flow rate 15 mL/min.

thermal stability (conclusion from the DSC/TG experimental results)	temperature at which the crystal form begins to decompose according to the thermogravimetric analysis (TG, 30-400° C., scan rate 10K/min)	SMILES
good thermal stability		CNCc1ccc(-c2cc3cc(F)cc(C(N)=O)c3o2)cc1.Cl [crystal form A, 2-[4-(methylaminomethyl)phenyl]-5-fluoro-benzofuran-7-carboxamide hydrochloride]
	250±20 °C	CNCc1ccc(-c2cc3cc(F)cc(C(N)=O)c3o2)cc1.Cl [crystal form C, 2-[4-(methylaminomethyl)phenyl]-5-fluoro-benzofuran-7-carboxamide hydrochloride]

Source: patent publication US11174237B2, “2-[4-(meihylaminomethyl)phenyl]-5-fluoro- benzofuran-7-carboxamide hydrochloride polymorph, preparation method therefor and application thereof” (SHANGHAI INSTITUTE OF MATERIA MEDICA, CHINESE ACADEMY OF …, priority 2017, dated 2021)
